In patent publication US5137811A, “Method for diagnosing periodontal diseases with a substrate specific for aminopeptidase activity of periodontopathic bacteria” (Sunstar Kabushiki Kaisha, priority 1986, dated 1992):
*1 amine or outer side, *2 acyl side, *3 side chain or, on linkers, in order; H or OH if unused. Where a SMILES comes first, the peptide text is derived from it. The star is where a group is joined. Suc = O=C(CCC(=O)[*:2])[*:1]; βNA = c1ccc2cc(N*)ccc2c1; Cbz = O=C(OCc1ccccc1)*; Bz = O=C(c1ccccc1)*

Experiments:
Assay in all cases: Hydrolytic activity of cell suspension on aminopeptidase substrates (Experiment 2)
Type in all cases: cell-based
[1] = test system: B. intermedius; details: three strains, Table 2
Protocol: (§1) The strains of Treponema were anaerobically cultivated using TYGVS media at 37° C. for 7 days, while other bacterial strains were cultivated using brain heart infusion broth at 37° C. for 48 to 72 hours. Each culture was diluted to obtain a bacterial cell suspension, the absorption at 660 nm of which was 1.0.
(§2) Substrate compounds for aminopeptidase enzyme having various color developing groups derived from β-naphthylamine were dissolved in 0.1M Tris-HCl buffer (pH 7.0) at the concentration of 0.2 mM to obtain substrate solutions.
(§3) To the substrate solution (1.5 ml) was added the above cell suspension (0.3 ml) and reacted at 37° C. for 60 minutes. After completion of the reaction, a coloring reagent [prepared by dissolving diazonium salt of Garnet GBC in 1M acetate buffer (containing 10% Tween 20, pH: 4.2) at the concentration of 0.5 mg/ml] was added and, after 15 minutes, the absorption at 525 nm was determined with a spectrophotometer.
(§4) On the basis of the average amount of released β-naphthylamine in each strain, the hydrolytic activity was expressed as follows: […]
(§5) According to the same manner as described in Experiment 1, periodontopathic bacteria specific aminopeptidase activity was tested by using four strains of Treponema denticola, five strains of B. gingivalis, three strains of B. intermedius, two strains of B. melaninogenicus, two strains of Actinomyces israelli, four strains of Actinobacillus actinomycetemcomitans and three strains of Fusobacterium nucleatum. Abbreviations used in Table 2 mean the following substrate compounds.

[2] = test system: Fusobacterium nucleatum; details: three strains, Table 2
Protocol: as §1, §2, §3, §4, §5

[3] = test system: B. gingivalis; details: five strains, Table 2
Protocol: as §1, §2, §3, §4, §5

[4] = test system: B. melaninogenicus; details: two strains, Table 2
Protocol: as §1, §2, §3, §4, §5

[5] = test system: Actinomyces israelli; details: two strains, Table 2
Protocol: as §1, §2, §3, §4, §5

[6] = test system: Treponema denticola; details: four strains, Table 2
Protocol: as §1, §2, §3, §4, §5

[7] = test system: B. corporis; details: Table 2
Protocol: as §1, §2, §3, §4, §5

[8] = test system: Actinobacillus actinomycetemcomitans; details: four strains, Table 2
Protocol: as §1, §2, §3, §4, §5

[9] = test system: B. denticola; details: Table 2
Protocol: as §1, §2, §3, §4, §5

SMILES	hydrolytic activity (average amount of released β-naphthylamine) [1]	hydrolytic activity (average amount of released β-naphthylamine) [2]	hydrolytic activity (average amount of released β-naphthylamine) [3]	hydrolytic activity (average amount of released β-naphthylamine) [4]	hydrolytic activity (average amount of released β-naphthylamine) [5]	hydrolytic activity (average amount of released β-naphthylamine) [6]	hydrolytic activity (average amount of released β-naphthylamine) [7]	hydrolytic activity (average amount of released β-naphthylamine) [8]	hydrolytic activity (average amount of released β-naphthylamine) [9]
N[C@@H](Cc1ccccc1)C(=O)N1CCC[C@H]1C(=O)Nc1ccc2ccccc2c1 [FP, phenylalanyl-proline-β-naphthylamide] (H-Phe-Pro-βNA)	+ (10 ≤release amount<20 nmol/ml)	- (release amount<5 nmol/ml)	++ (20 ≤release amount<40 nmol/ml)	+ (10 ≤release amount<20 nmol/ml)	- (release amount<5 nmol/ml)	++ (20 ≤release amount<40 nmol/ml)	+ (10 ≤release amount<20 nmol/ml)	- (release amount<5 nmol/ml)	+ (10 ≤release amount<20 nmol/ml)
CC(C)[C@H](NC(=O)OCc1ccccc1)C(=O)N[C@@H](CCCCN)C(=O)N1CCC[C@H]1C(=O)Nc1ccc2ccccc2c1 [CxVKP, N-carbobenzoxy-valyl-lysyl-proline-β-naphthylamide] (Cbz-Val-Lys-Pro-βNA)	++ (20 ≤release amount<40 nmol/ml)	- (release amount<5 nmol/ml)	++ (20 ≤release amount<40 nmol/ml)	++ (20 ≤release amount<40 nmol/ml)	- (release amount<5 nmol/ml)	++ (20 ≤release amount<40 nmol/ml)	++ (20 ≤release amount<40 nmol/ml)	- (release amount<5 nmol/ml)	++ (20 ≤release amount<40 nmol/ml)
CC(C)C[C@H](N)C(=O)NCC(=O)Nc1ccc2ccccc2c1 [LG, leucyl-glycine-β-naphthylamide, reference compound] (H-Leu-Gly-βNA)	- (release amount<5 nmol/ml)	- (release amount<5 nmol/ml)	+ (10 ≤release amount<20 nmol/ml)	+++ (release amount≥40 nmol/ml)	- (release amount<5 nmol/ml)	- (release amount<5 nmol/ml)	++ (20 ≤release amount<40 nmol/ml)	- (release amount<5 nmol/ml)	++ (20 ≤release amount<40 nmol/ml)
O=C(CNC(=O)c1ccccc1)N[C@@H](Cc1ccccc1)C(=O)N1CCC[C@H]1C(=O)Nc1ccc2ccccc2c1 [BzGFP, N-benzoyl-glycyl-phenylalanyl-proline-β-naphthylamide] (Bz-Gly-Phe-Pro-βNA)	+++ (release amount≥40 nmol/ml)	- (release amount<5 nmol/ml)	++ (20 ≤release amount<40 nmol/ml)	++ (20 ≤release amount<40 nmol/ml)	- (release amount<5 nmol/ml)	+++ (release amount≥40 nmol/ml)	++ (20 ≤release amount<40 nmol/ml)	- (release amount<5 nmol/ml)	++ (20 ≤release amount<40 nmol/ml)
N[C@@H](CO)C(=O)N[C@@H](Cc1ccc(O)cc1)C(=O)Nc1ccc2ccccc2c1 [SY, seryl-tyrosine-β-naphthylamide, reference compound] (H-Ser-Tyr-βNA)	- (release amount<5 nmol/ml)	- (release amount<5 nmol/ml)	++ (20 ≤release amount<40 nmol/ml)	± (5 ≤release amount<10 nmol/ml)	- (release amount<5 nmol/ml)	- (release amount<5 nmol/ml)	± (5 ≤release amount<10 nmol/ml)	- (release amount<5 nmol/ml)	± (5 ≤release amount<10 nmol/ml)
O=C(NCC(=O)N1CCC[C@H]1C(=O)Nc1ccc2ccccc2c1)c1ccccc1 [BzGP, N-benzoyl-glycyl-proline-β-naphthylamide] (Bz-Gly-Pro-βNA)	+++ (release amount≥40 nmol/ml)	- (release amount<5 nmol/ml)	++ (20 ≤release amount<40 nmol/ml)	++ (20 ≤release amount<40 nmol/ml)	- (release amount<5 nmol/ml)	++ (20 ≤release amount<40 nmol/ml)	++ (20 ≤release amount<40 nmol/ml)	- (release amount<5 nmol/ml)	++ (20 ≤release amount<40 nmol/ml)
CC(C)C[C@H](NC(=O)[C@@H]1CCCN1C(=O)CNC(=O)CCC(=O)O)C(=O)NCC(=O)N1CCC[C@H]1C(=O)Nc1ccc2ccccc2c1 [ScGPLGP, N-succinyl-glycyl-prolyl-leucyl-glycyl-proline-β-naphthylamide] (Suc-GPLGP-βNA)	+ (10 ≤release amount<20 nmol/ml)	- (release amount<5 nmol/ml)	± (5 ≤release amount<10 nmol/ml)	± (5 ≤release amount<10 nmol/ml)	- (release amount<5 nmol/ml)	+ (10 ≤release amount<20 nmol/ml)	± (5 ≤release amount<10 nmol/ml)	- (release amount<5 nmol/ml)	± (5 ≤release amount<10 nmol/ml)
O=C(Nc1ccc2ccccc2c1)[C@@H]1CCCN1 [P, proline-β-naphthylamide, reference compound]	- (release amount<5 nmol/ml)	- (release amount<5 nmol/ml)	- (release amount<5 nmol/ml)	- (release amount<5 nmol/ml)	- (release amount<5 nmol/ml)	+ (10 ≤release amount<20 nmol/ml)	- (release amount<5 nmol/ml)	- (release amount<5 nmol/ml)	- (release amount<5 nmol/ml)
CC(C)[C@H](N)C(=O)N[C@@H](C)C(=O)Nc1ccc2ccccc2c1 [VA, valyl-alanine-β-naphthylamide, reference compound] (H-Val-Ala-βNA)	- (release amount<5 nmol/ml)	- (release amount<5 nmol/ml)	++ (20 ≤release amount<40 nmol/ml)	± (5 ≤release amount<10 nmol/ml)	- (release amount<5 nmol/ml)	- (release amount<5 nmol/ml)	± (5 ≤release amount<10 nmol/ml)	- (release amount<5 nmol/ml)	± (5 ≤release amount<10 nmol/ml)
